Measurements taken from the NIST ThermoML archive (doi:10.1021/je200721d).

Test: xn = mol fraction of the nth substance listed
Details: Liquid, Vibrating tube method

CCCCCCCC [octane] + CCCCCC
Details | mass density [kg/m3]
323.08 K, 13000 kPa, x2 = 0.1654 | 685.79
323.08 K, 14000 kPa, x2 = 0.1654 | 686.73
323.08 K, 15000 kPa, x2 = 0.1654 | 687.65
323.08 K, 16000 kPa, x2 = 0.1654 | 688.56
323.08 K, 17000 kPa, x2 = 0.1654 | 689.44
323.08 K, 18000 kPa, x2 = 0.1654 | 690.32
323.08 K, 19000 kPa, x2 = 0.1654 | 691.15
323.08 K, 20000 kPa, x2 = 0.1654 | 691.98
323.08 K, 21000 kPa, x2 = 0.1654 | 692.79
323.08 K, 22000 kPa, x2 = 0.1654 | 693.57
323.08 K, 23000 kPa, x2 = 0.1654 | 694.36
323.08 K, 24000 kPa, x2 = 0.1654 | 695.11
323.08 K, 25000 kPa, x2 = 0.1654 | 695.85
323.09 K, 1000 kPa, x2 = 0.9308 | 638.41
323.09 K, 2000 kPa, x2 = 0.9308 | 639.57
323.09 K, 3000 kPa, x2 = 0.9308 | 640.76
323.09 K, 4000 kPa, x2 = 0.9308 | 641.92
323.09 K, 5000 kPa, x2 = 0.9308 | 643.1
323.09 K, 6000 kPa, x2 = 0.9308 | 644.29
323.09 K, 7000 kPa, x2 = 0.9308 | 645.46
323.09 K, 8000 kPa, x2 = 0.9308 | 646.63
323.09 K, 9000 kPa, x2 = 0.9308 | 647.79
323.09 K, 10000 kPa, x2 = 0.9308 | 648.93
323.09 K, 11000 kPa, x2 = 0.9308 | 650.05
323.09 K, 12000 kPa, x2 = 0.9308 | 651.17
323.09 K, 13000 kPa, x2 = 0.9308 | 652.26
323.09 K, 14000 kPa, x2 = 0.9308 | 653.35
323.09 K, 15000 kPa, x2 = 0.9308 | 654.41
323.09 K, 16000 kPa, x2 = 0.9308 | 655.45
323.09 K, 17000 kPa, x2 = 0.9308 | 656.47
323.09 K, 18000 kPa, x2 = 0.9308 | 657.47
323.09 K, 19000 kPa, x2 = 0.9308 | 658.44
323.09 K, 20000 kPa, x2 = 0.9308 | 659.39
323.09 K, 21000 kPa, x2 = 0.9308 | 660.32
323.09 K, 22000 kPa, x2 = 0.9308 | 661.2
323.09 K, 23000 kPa, x2 = 0.9308 | 662.07
323.09 K, 24000 kPa, x2 = 0.9308 | 662.91
323.09 K, 25000 kPa, x2 = 0.9308 | 663.72
323.1 K, 1000 kPa, x2 = 0.7995 | 646.3
323.1 K, 2000 kPa, x2 = 0.7995 | 647.41
323.1 K, 3000 kPa, x2 = 0.7995 | 648.55
323.1 K, 4000 kPa, x2 = 0.7995 | 649.72
323.1 K, 5000 kPa, x2 = 0.7995 | 650.83
323.1 K, 6000 kPa, x2 = 0.7995 | 651.95
323.1 K, 7000 kPa, x2 = 0.7995 | 653.08
323.1 K, 8000 kPa, x2 = 0.7995 | 654.18
323.1 K, 9000 kPa, x2 = 0.7995 | 655.3
323.1 K, 10000 kPa, x2 = 0.7995 | 656.41
323.1 K, 11000 kPa, x2 = 0.7995 | 657.51
323.1 K, 12000 kPa, x2 = 0.7995 | 658.59
323.1 K, 13000 kPa, x2 = 0.7995 | 659.66
323.1 K, 14000 kPa, x2 = 0.7995 | 660.72
323.1 K, 15000 kPa, x2 = 0.7995 | 661.75
323.1 K, 16000 kPa, x2 = 0.7995 | 662.76
323.1 K, 17000 kPa, x2 = 0.7995 | 663.74
323.1 K, 18000 kPa, x2 = 0.7995 | 664.69
323.1 K, 19000 kPa, x2 = 0.7995 | 665.64
323.1 K, 20000 kPa, x2 = 0.7995 | 666.56
323.1 K, 21000 kPa, x2 = 0.7995 | 667.44
323.1 K, 22000 kPa, x2 = 0.7995 | 668.32
323.1 K, 23000 kPa, x2 = 0.7995 | 669.16
323.1 K, 24000 kPa, x2 = 0.7995 | 669.96
323.1 K, 25000 kPa, x2 = 0.7995 | 670.76
332.95 K, 1000 kPa, x2 = 0.5749 | 649.41
332.95 K, 2000 kPa, x2 = 0.5749 | 650.55
332.95 K, 3000 kPa, x2 = 0.5749 | 651.69
332.95 K, 4000 kPa, x2 = 0.5749 | 652.87
332.95 K, 5000 kPa, x2 = 0.5749 | 654.06
332.95 K, 6000 kPa, x2 = 0.5749 | 655.21
332.95 K, 7000 kPa, x2 = 0.5749 | 656.35
332.95 K, 8000 kPa, x2 = 0.5749 | 657.49
332.95 K, 9000 kPa, x2 = 0.5749 | 658.63
332.95 K, 10000 kPa, x2 = 0.5749 | 659.75
332.95 K, 11000 kPa, x2 = 0.5749 | 660.86
332.95 K, 12000 kPa, x2 = 0.5749 | 661.96
332.95 K, 13000 kPa, x2 = 0.5749 | 663.04
332.95 K, 14000 kPa, x2 = 0.5749 | 664.1
332.95 K, 15000 kPa, x2 = 0.5749 | 665.14
332.95 K, 16000 kPa, x2 = 0.5749 | 666.16
332.95 K, 17000 kPa, x2 = 0.5749 | 667.18
332.95 K, 18000 kPa, x2 = 0.5749 | 668.14
332.95 K, 19000 kPa, x2 = 0.5749 | 669.09
332.95 K, 20000 kPa, x2 = 0.5749 | 670.02
332.95 K, 21000 kPa, x2 = 0.5749 | 670.93
332.95 K, 22000 kPa, x2 = 0.5749 | 671.82
332.95 K, 23000 kPa, x2 = 0.5749 | 672.7
332.95 K, 24000 kPa, x2 = 0.5749 | 673.55
332.95 K, 25000 kPa, x2 = 0.5749 | 674.35
333.01 K, 1000 kPa, x2 = 0.9308 | 629.03
333.01 K, 2000 kPa, x2 = 0.9308 | 630.32
333.01 K, 3000 kPa, x2 = 0.9308 | 631.62
333.01 K, 4000 kPa, x2 = 0.9308 | 632.91
333.01 K, 5000 kPa, x2 = 0.9308 | 634.2
333.01 K, 6000 kPa, x2 = 0.9308 | 635.48
